Several values for one entry are separate records, joined by “and”; a condition that tells them apart may be missing. Identical values can stand only once. Like-named read-outs stand apart in the source and are kept apart here. Blank lines part the entries; values can stand above or below the compound they belong to.
How the values were obtained:
[1] = molecular target: T1, human KDR (VEGF-receptor-2) (Homo sapiens, UniProt P35968); assay: KDR kinase enzyme assay (DELFIA, KDR-IC-Flag, poly(Glu4-Tyr) peptide); type: biochemical; settings: for inhibition at 0.1 µM: Concentration 100 nM; for inhibition at 0.1 µM / inhibition at 1 µM: read-out: % Inhibition; for inhibition at 1 µM: Concentration 1000 nM
T1 construct: beginning at Met-806; (5′-ATG GAT CCA GAT GM CTC CCA TTG) and ending at Val-1356; made in house
T1 sequence (P35968 806-1356): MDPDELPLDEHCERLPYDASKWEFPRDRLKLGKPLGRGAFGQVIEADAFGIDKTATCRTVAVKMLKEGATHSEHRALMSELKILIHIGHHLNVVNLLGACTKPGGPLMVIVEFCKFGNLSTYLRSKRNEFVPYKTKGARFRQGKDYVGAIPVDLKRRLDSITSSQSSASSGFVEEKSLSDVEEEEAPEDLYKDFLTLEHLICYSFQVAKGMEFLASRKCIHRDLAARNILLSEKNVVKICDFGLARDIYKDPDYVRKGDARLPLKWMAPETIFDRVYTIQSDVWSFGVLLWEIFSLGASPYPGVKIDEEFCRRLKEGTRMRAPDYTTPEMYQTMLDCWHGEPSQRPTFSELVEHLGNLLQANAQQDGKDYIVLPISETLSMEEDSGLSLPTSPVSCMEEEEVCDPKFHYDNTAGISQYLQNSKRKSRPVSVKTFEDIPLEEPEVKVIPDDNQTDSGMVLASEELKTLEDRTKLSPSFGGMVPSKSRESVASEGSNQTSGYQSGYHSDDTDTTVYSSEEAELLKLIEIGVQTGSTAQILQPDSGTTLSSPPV

[2] = molecular target: T1, human KDR (VEGF-receptor-2); assay: KDR kinase enzyme assay wash-out experiments (irreversible inhibition); type: biochemical
Protocol: To determine if compounds bound irreversibly to enzyme, plates were washed after the enzyme plus compound pre-incubation step and prior to the addition of ATP. Parallel plates were tested wherein one plate was processed exactly as above while a second plate was washed three times in 100 μl of 4 mM HEPES, pH 7.4, to remove unbound compound. 1× Kinase buffer (30 μl of 1 mM MnCl2, 4 mM HEPES, pH 7.4, 20 μM Na3VO4) and 20 μl of ATP/MgCl2 were added to the wash-out plate. Detection of phosphotyrosinylated peptide for both plates was performed as described above.
For each inhibitor shown in Table 2, two IC50 determinations are shown, one under normal conditions and the other where an intermediate wash-out step is carried out. […] If there was a large increase in the IC50 value in the wash-out experiment compared to the experiment where there was no wash-out, then it was determined that the compound was behaving as a conventional reversible binding inhibitor.

[3] = tested on: Human umbilical vein endothelial cells (HUVEC); assay: HUVEC proliferation assay, VEGF-dependent growth ([3H]-thymidine incorporation); type: cell-based
Protocol: Cells were plated into 96-well dishes (4000 cells per well) and allowed to attach overnight. HUVEC were rinsed one time with 100 μl of EBMc-V (EBM supplemented with all above components except serum or VEGF), then 50 ul of EBMc-V was added to cells. Compounds were prepared at 200× stocks in DMSO, diluted into EBMc-V media as 4× stocks, then 50 ul added to appropriate wells. Finally, 100 μl of 2×VEGF (100 ng/ml prepared in EBMc-V; final 50 ng/ml VEGF) was added to all VEGF-treated wells. EBMc-V (no VEGF) was added to negative control wells. Parallel compound-treated plates were prepared except that 100 μl of EGM2 media containing 2% serum but lacking VEGF (EGMc-V) was added. Cells were incubated for 4-5 days at 37° C.
DNA synthesis was assessed by thymidine incorporation. Cells were incubated for 5 hours in 1 μCi of [^3H]-thymidine (PerkinElmer) by addition of 10 ul of 0.1 μCi/ul thymidine prepared in PBS to each well. After incubation, media was aspirated and the cells trypsinized and collected onto a mat using a vacuum-based Micro Cell Harvester (Skatron). [^3H]-thymidine was counted in a liquid scintillation counter. Compounds evaluated for ability to inhibit VEGF-dependent growth of human umbilical vein endothelial cells (HUVEC).

[4] = tested on: Human colon carcinoma DLD-1; assay: Growth of human tumor xenografts in the nude mouse model; settings: for % T/C Day 7 / % T/C Day 14 / % T/C Day 21 / Relative tumor growth Day 7 / Relative tumor growth Day 14 / Relative tumor growth Day 21: DLD1, nude mouse
Protocol: Human colon carcinoma DLD-1 cells (American Type Culture Collection, Rockville, Md.) were grown in tissue culture in DMEM (Gibco/BRL, Gaithersburg, Md.) supplemented with 10% FBS (Gemini Bio-Products Inc., Calabasas, Calif.). Athymic nu/nu female mice (Charles River, Wilmington, Mass.) were injected subcutaneously (SC) in the flank area with 6×10^6 DLD-1 cells. When tumors attained a mass of between 75 and 100 mg, the mice were randomly assigned into treatment groups with 5 animals per group. Animals were treated orally (PO) once daily on days 1 through 20 post staging (day zero) with a dose range (50 to 100 mg/kg/dose) of compound prepared in 0.5% Methocel/0.5% Tween 80 or 0.5% Methocel/0.4% Tween 80 as the vehicle control. Tumor mass was determined every 7 days [(length×width^2)/2] for 21 days post-staging. Relative tumor growth (mean tumor mass on days 7, 14 and 21 divided by the mean tumor mass on day zero) was determined for each treatment group.

KDR = KDR (Homo sapiens, UniProt P35968); assay: cell-based; settings: for inhibition at 1 µM: read-out: % Inhibition of KDR kinase autophosphorylation in KDR15 cells, compound conc. 1000 nM; for IC50: IC50 (nM), inhibition of KDR kinase autophosphorylation in KDR15 cells, KDR15 cells, VEGF 50 ng/ml, phospho-KDR-Y996 immunoblot
KDR, sequence (P35968 20-1356): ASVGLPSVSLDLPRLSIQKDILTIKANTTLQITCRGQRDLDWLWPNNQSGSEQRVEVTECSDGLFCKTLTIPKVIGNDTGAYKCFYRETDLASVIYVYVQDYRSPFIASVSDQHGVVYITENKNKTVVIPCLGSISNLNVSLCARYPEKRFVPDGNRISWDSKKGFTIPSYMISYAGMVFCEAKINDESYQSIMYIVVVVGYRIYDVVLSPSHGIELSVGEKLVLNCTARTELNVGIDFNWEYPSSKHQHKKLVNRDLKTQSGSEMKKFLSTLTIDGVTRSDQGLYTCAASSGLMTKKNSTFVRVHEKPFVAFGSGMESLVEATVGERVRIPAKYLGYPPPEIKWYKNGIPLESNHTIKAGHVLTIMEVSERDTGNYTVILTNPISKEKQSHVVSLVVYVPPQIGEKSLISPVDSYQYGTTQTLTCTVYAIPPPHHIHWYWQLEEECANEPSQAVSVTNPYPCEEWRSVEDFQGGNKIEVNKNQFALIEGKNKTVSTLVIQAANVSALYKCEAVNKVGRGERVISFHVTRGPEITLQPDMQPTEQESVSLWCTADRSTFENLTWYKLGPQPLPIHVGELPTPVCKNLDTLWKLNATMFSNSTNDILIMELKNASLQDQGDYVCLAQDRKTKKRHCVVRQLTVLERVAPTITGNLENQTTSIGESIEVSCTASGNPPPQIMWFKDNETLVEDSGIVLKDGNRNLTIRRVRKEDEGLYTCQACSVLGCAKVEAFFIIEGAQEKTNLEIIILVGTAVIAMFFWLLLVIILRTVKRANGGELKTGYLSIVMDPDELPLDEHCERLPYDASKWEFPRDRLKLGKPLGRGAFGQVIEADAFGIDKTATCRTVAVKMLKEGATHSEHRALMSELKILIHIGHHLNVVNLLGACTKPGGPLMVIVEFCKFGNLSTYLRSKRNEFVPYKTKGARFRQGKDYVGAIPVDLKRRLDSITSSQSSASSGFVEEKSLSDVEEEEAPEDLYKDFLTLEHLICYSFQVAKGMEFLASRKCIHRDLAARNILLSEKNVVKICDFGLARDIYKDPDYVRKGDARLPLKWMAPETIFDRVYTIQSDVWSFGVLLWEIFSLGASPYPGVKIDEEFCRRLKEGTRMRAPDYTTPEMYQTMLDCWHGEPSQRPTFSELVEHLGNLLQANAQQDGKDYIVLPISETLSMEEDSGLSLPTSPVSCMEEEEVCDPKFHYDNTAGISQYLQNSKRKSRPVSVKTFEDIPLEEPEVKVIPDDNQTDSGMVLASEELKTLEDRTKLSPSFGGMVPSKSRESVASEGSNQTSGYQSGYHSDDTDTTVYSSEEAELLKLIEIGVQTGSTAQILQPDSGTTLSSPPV

[5] = Homo sapiens, HUVEC, conc. 10000 nM
[6] = 50 mg/kg/dose PO, days 1 through 20
[7] = 100 mg/kg/dose PO, days 1 through 20
[8] = Table 6, dose not given, administered on days 1 through 20

SMILES: COCCOC1=CC(=O)C(Nc2ncnc3cc(OCCOC)c(OC)cc23)=CC1=O
- melting point: 211 to 212 °C

SMILES: COCCOc1cc2ncnc(NC3=CC(=O)C(Oc4ccc(-n5ccnc5)cc4)=CC3=O)c2cc1OC [Example 26, 2-[4-(1H-imidazol-1-yl)phenoxy]-5-{[6-methoxy-7-(2-methoxyethoxy)quinazolin-4-yl]amino}benzo-1,4-quinone]
- inhibition at 10 µM [3, 5]: 89%
- % Inhibition of VEGF-dependent growth of HUVEC ([3]; conc. 10000 nM): 96% and 99% and 95% and 87% and 91%
- S/T = # of Survivors/# of Treated on Day +21 post tumor staging [4, 6]: 5/5
- % T/C Day 7 [4, 6]: 84%
- % T/C Day 14 [4, 6]: 62%
- % T/C Day 21 [4, 6]: 61%
- Relative tumor growth Day 7 [4, 6]: 4.21
- Relative tumor growth Day 14 [4, 6]: 6.93
- Relative tumor growth Day 21 [4, 6]: 10.50
- S/T = # of Survivors/# of Treated on Day +21 post tumor staging [4, 7]: 5/5
- % T/C Day 7 [4, 7]: 67%
- % T/C Day 14 [4, 7]: 55%
- % T/C Day 21 [4, 7]: 51%
- Relative tumor growth Day 7 [4, 7]: 3.36
- Relative tumor growth Day 14 [4, 7]: 6.10
- Relative tumor growth Day 21 [4, 7]: 8.80

SMILES: COc1cc2ncnc(NC3=CC(=O)C(N4CCCCC4)=CC3=O)c2cc1OC [Example 87, 2-[(6,7-dimethoxyquinazolin-4-yl)amino]-5-piperidin-1-ylbenzo-1,4-quinone]
- melting point: 226 to 227 °C
- inhibition at 0.1 µM ([1]; ATP conc. 10 μM): 19%
- inhibition at 1 µM ([1]; ATP conc. 10 μM): 72%
- inhibition at 1 µM ([1]; ATP conc. 1000 μM): 85%

SMILES: COc1cc2ncnc(NC3=CC(=O)C(N(C)C)=CC3=O)c2cc1OC [Example 88, 2-[(6,7-dimethoxyquinazolin-4-yl)amino]-5-(dimethylamino)benzo-1,4-quinone]
- melting point: 245 to 250 °C
- inhibition at 1 µM (KDR): 32%
- inhibition at 0.1 µM ([1]; ATP conc. 10 μM): 28%
- inhibition at 1 µM ([1]; ATP conc. 10 μM): 63%
- inhibition at 1 µM ([1]; ATP conc. 1000 μM): 48%

SMILES: COc1cc2ncnc(NC3=CC(=O)C4(c5ccccc5)OC4C3=O)c2cc1OC (stereo not shown) [Example 100, 4-[(6,7-dimethoxyquinazolin-4-yl)amino]-1-phenyl-7-oxabicyclo[4.1.0]hept-3-ene-2,5-dione]
- melting point: 252 to 253 °C

SMILES: COCCOc1cc2ncnc(NC3=CC(=O)C(N4CCCCC4)=CC3=O)c2cc1OC [Example 101, 2-{[6-methoxy-7-(2-methoxyethoxy)quinazolin-4-yl]amino}-5-piperidin-1-yl-benzo-1,4-quinone]
- inhibition at 0.1 µM ([3]; Homo sapiens, HUVEC, conc. 100 nM): 12%
- inhibition at 1 µM ([3]; Homo sapiens, HUVEC, conc. 1000 nM): 36%
- inhibition at 10 µM [3, 5]: 94%
- melting point: 197 to 200 °C

SMILES: COCCOc1cc2ncnc(NC3=CC(=O)C(N4CCCC4C(F)(F)F)=CC3=O)c2cc1OC (stereo not shown) [Example 150, 2-{[6-methoxy-7-(2-methoxyethoxy)quinazolin-4-yl]amino}-5-[2-(trifluoromethyl)pyrrolidin-1-yl]benzo-1,4-quinone]
- % T/C Day 7 [4, 8]: 63%
- % T/C Day 14 [4, 8]: 82%
- % T/C Day 21 [4, 8]: 88%
- Relative tumor growth Day 7 [4, 8]: 1.62
- Relative tumor growth Day 14 [4, 8]: 6.45
- Relative tumor growth Day 21 [4, 8]: 12.54

SMILES: COCCOc1cc2ncnc(NC3=C(SC)C(=O)C(Cl)=C(OC)C3=O)c2cc1OC [Example 190, 2-chloro-3-methoxy-5-{[6-methoxy-7-(2-methoxyethoxy)quinazolin-4-yl]amino}-6-(methylthio)benzo-1,4-quinone]
- % T/C Day 7 [4, 8]: 61%
- % T/C Day 14 [4, 8]: 94%
- % T/C Day 21 [4, 8]: 76%
- Relative tumor growth Day 7 [4, 8]: 1.58
- Relative tumor growth Day 14 [4, 8]: 7.41
- Relative tumor growth Day 21 [4, 8]: 10.74

SMILES: COCCOc1cc2ncnc(NC3=CC(=O)C(OCC4CC4)=CC3=O)c2cc1OC [Example 213, 2-(cyclopropylmethoxy)-5-{[6-methoxy-7-(2-methoxyethoxy)quinazolin-4-yl]amino}benzo-1,4-quinone]
- IC50 (KDR): 236 to 400 nM
- IC50 ([2]; no wash): 4.7 nM
- IC50 ([2]; wash out): 16.9 nM

SMILES: COc1cc2c(NC3=CC(=O)C(Cl)=CC3=O)ncnc2cc1OCC1CCCCO1 (stereo not shown) [Example 345, 2-chloro-5-{[6-methoxy-7-(tetrahydro-2H-pyran-2-ylmethoxy)quinazolin-4-yl]amino}benzo-1,4-quinone]
- melting point: 215 to 220 °C

Second part, the compound after the results:

- melting point: 177 to 180 °C
SMILES: COCCOc1cc2ncnc(NC3=CC(=O)C(Oc4ccccc4)=CC3=O)c2cc1OC

- IC50 ([1]; ATP conc. 10 μM): 17.9 nM
- inhibition at 0.1 µM ([1]; ATP conc. 10 μM): 92%
- inhibition at 1 µM ([1]; ATP conc. 10 μM): 90%
- inhibition at 1 µM ([1]; ATP conc. 1000 μM): 97%
- IC50 ([2]; no wash): 17.9 nM
- IC50 ([2]; wash out): 33.1 nM
SMILES: COCCOc1cc2ncnc(NC3=CC(=O)C(Sc4nccs4)=C(OC)C3=O)c2cc1OC [Example 20]

- IC50 ([1]; ATP conc. 10 μM): 53.7 nM and 72.4 nM
- inhibition at 0.1 µM ([1]; ATP conc. 10 μM): 73%
- inhibition at 1 µM ([1]; ATP conc. 10 μM): 93%
- inhibition at 1 µM ([1]; ATP conc. 1000 μM): 94%
- IC50 ([2]; no wash): 53.7 nM
- IC50 ([2]; wash out): 73.7 nM
SMILES: COCCOc1cc2ncc(C#N)c(NC3=CC(=O)C(Oc4ccc(-n5ccnc5)cc4)=CC3=O)c2cc1OC [Example 72, 4-({4-[4-(1H-imidazol-1-yl)phenoxy]-3,6-dioxocyclohexa-1,4-dien-1-yl}amino)-6-methoxy-7-(2-methoxyethoxy)quinoline-3-carbonitrile]

- melting point: 249 to 250 °C
- inhibition at 1 µM (KDR): 4%
- inhibition at 1 µM ([1]; ATP conc. 10 μM): 88%
- inhibition at 1 µM ([1]; ATP conc. 1000 μM): 82%
SMILES: COc1cc2ncnc(NC3=CC(=O)C(N4CCOCC4)=CC3=O)c2cc1OC [Example 84, 2-[(6,7-dimethoxyquinazolin-4-yl)amino]-5-morpholin-4-ylbenzo-1,4-quinone]

- melting point: 204 to 206 °C
- inhibition at 0.1 µM ([1]; ATP conc. 10 μM): 20%
- inhibition at 1 µM ([1]; ATP conc. 10 μM): 62%
- inhibition at 1 µM ([1]; ATP conc. 1000 μM): 64%
SMILES: COc1cc2ncnc(NC3=CC(=O)C(N(C)c4ccccc4)=CC3=O)c2cc1OC [Example 85, 2-[(6,7-dimethoxyquinazolin-4-yl)amino]-5-[methyl(phenyl)amino]benzo-1,4-quinone]

- melting point: 283 to 285 °C
- inhibition at 0.1 µM ([1]; ATP conc. 10 μM): 11%
- inhibition at 1 µM ([1]; ATP conc. 10 μM): 18%
- inhibition at 1 µM ([1]; ATP conc. 1000 μM): -12%
SMILES: CNC1=CC(=O)C(Nc2ncnc3cc(OC)c(OC)cc23)=CC1=O [Example 89, 2-[(6,7-dimethoxyquinazolin-4-yl)amino]-5-(methylamino)benzo-1,4-quinone]

- melting point: 171 to 172 °C
- inhibition at 0.1 µM ([1]; ATP conc. 10 μM): 92%
- inhibition at 1 µM ([1]; ATP conc. 10 μM): 93%
- inhibition at 1 µM ([1]; ATP conc. 1000 μM): 97%
SMILES: COCCOc1cc2ncnc(NC3=CC(=O)C(Oc4ccc(C)cc4)=CC3=O)c2cc1OC [Example 92, 2-{[6-methoxy-7-(2-methoxyethoxy)quinazolin-4-yl]amino}-5-(4-methylphenoxy)benzo-1,4-quinone]

- melting point: 188 to 190 °C
SMILES: COc1cc2ncnc(NC3=CC(=O)C4(C(C)C)OC4C3=O)c2cc1OC (stereo not shown) [Example 107, 4-[(6,7-dimethoxy-4-quinazolinyl)amino]-1-isopropyl-7-oxabicyclo[4.1.0]hept-3-ene-2,5-dione]

- IC50 (KDR): 175 to 210 nM
- IC50 ([2]; no wash): 78.6 nM
- IC50 ([2]; wash out): 128 nM
SMILES: COCCOc1cc2ncnc(NC3=CC(=O)C(OCCN(C)c4ccccc4)=CC3=O)c2cc1OC [Example 222, 2-{[6-methoxy-7-(2-methoxyethoxy)quinazolin-4-yl]amino}-5-{2-[methyl(phenyl)amino]ethoxy}benzo-1,4-quinone]

- melting point: 200 to 210 °C
SMILES: COCCOc1cc2ncnc(NC3=CC(=O)C(Br)=CC3=O)c2cc1OC [Example 231, 2-bromo-5-{[6-methoxy-7-(2-methoxyethoxy)quinazolin-4-yl]amino}benzo-1,4-quinone]

- melting point: 109 to 115 °C
SMILES: COCCOc1cc2ncnc(NC3=CC(=O)C(Oc4ccc(-n5ccnc5)cc4)=CC3=O)c2cc1OCCOC [Example 341, 2-{[6,7-bis(2-methoxyethoxy)quinazolin-4-yl]amino}-5-[4-(1H-imidazol-1-yl)phenoxy]benzo-1,4-quinone]

From patent US20070299092A1 (Wyeth, priority 2004, published 2007)
